Test results taken from the supplement of paper PMC10307832.

Key:
Experiment in all cases: relative viability (nuclei count vs DMSO), 5 days (fraction); higher = more cells survive
[1] = tested on: NCI-H647
How it was run: (§1)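 Nuclei were stained with Hoechst during a one-step fixation (final 0.05% Triton X-100, 1% formaldehyde, 1 ug/ml Hoechst) carried out 5 days after dosing, then counted on 4× images. The cells, lung cancer lines in 1536-well plates, had been dosed by pin tool the day after seeding with one drug alone or a fixed anchor-drug dose plus five library-drug doses (not always all listed) in √10 steps. Relative viability is the nuclei count in treated wells divided by that in vehicle wells, and each value is the median of duplicate plates.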

[2] = tested on: COR-L 105
How it was run: as §1

[3] = tested on: NCI-H2087
How it was run: as §1

[4] = tested on: NCI-H520
How it was run: as §1

[5] = tested on: LC-2-ad
How it was run: as §1

[6] = tested on: NCI-H23
How it was run: as §1

[7] = tested on: RERF-LC-KJ
How it was run: as §1

[8] = tested on: HCC-827
How it was run: as §1

[9] = tested on: EPLC-272H
How it was run: as §1

[10] = tested on: NCI-H2347
How it was run: as §1

[11] = tested on: PC-14
How it was run: as §1

[12] = tested on: NCI-H650
How it was run: as §1

[13] = tested on: NCI-H2126
How it was run: as §1

[14] = tested on: NCI-H1915
How it was run: as §1

[15] = tested on: ChaGo-K-1
How it was run: as §1

[16] = tested on: NCI-H2405
How it was run: as §1

[17] = tested on: 201T
How it was run: as §1

[18] = tested on: LCLC-97TM1
How it was run: as §1

[19] = tested on: NCI-H661
How it was run: as §1

[20] = tested on: NCI-H1666
How it was run: as §1

[21] = tested on: H3255
How it was run: as §1

Q: What does the source list for `COc1nc(C)cnc1NS(=O)(=O)c1cccnc1-c1ccc(-c2nnco2)cc1` [Zibotentan] + CCNC(=O)c1noc(-c2cc(C(C)C)c(O)cc2O)c1-c1ccc(CN2CCOCC2)cc1 [Luminespib] (partner 0.01 µM)?
A: relative viability ([1]; first compound 0.08 µM): 0.244; relative viability ([1]; first compound 0.253 µM): 0.16; relative viability ([1]; first compound 0.8 µM): 0.185; relative viability ([1]; first compound 2.53 µM): 0.164; relative viability ([2]; first compound 0.08 µM): 0.938; relative viability ([2]; first compound 0.253 µM): 0.693; relative viability ([2]; first compound 0.8 µM): 0.891; relative viability ([2]; first compound 2.53 µM): 0.74; relative viability ([3]; first compound 0.08 µM): 0.168; relative viability ([3]; first compound 0.253 µM): 0.171; relative viability ([3]; first compound 0.8 µM): 0.169; relative viability ([3]; first compound 2.53 µM): 0.124; relative viability ([4]; first compound 0.08 µM): 0.206; relative viability ([4]; first compound 0.253 µM): 0.213; relative viability ([4]; first compound 0.8 µM): 0.242; relative viability ([4]; first compound 2.53 µM): 0.164; relative viability ([5]; first compound 0.08 µM): 1.25; relative viability ([5]; first compound 0.8 µM): 1.32; relative viability ([5]; first compound 2.53 µM): 1.06; relative viability ([6]; first compound 0.08 µM): 0.199; relative viability ([6]; first compound 0.8 µM): 0.231; relative viability ([6]; first compound 2.53 µM): 0.186; relative viability ([7]; first compound 0.08 µM): 1.3; relative viability ([7]; first compound 0.253 µM): 1.18; relative viability ([7]; first compound 0.8 µM): 1.44; relative viability ([7]; first compound 2.53 µM): 1.35; relative viability ([8]; first compound 0.08 µM): 0.574; relative viability ([8]; first compound 0.253 µM): 0.501; relative viability ([8]; first compound 0.8 µM): 0.442; relative viability ([8]; first compound 2.53 µM): 0.774; relative viability ([9]; first compound 0.08 µM): 0.234; relative viability ([9]; first compound 0.253 µM): 0.376; relative viability ([9]; first compound 0.8 µM): 0.272; relative viability ([9]; first compound 2.53 µM): 0.254; relative viability ([10]; first compound 0.253 µM): 0.382; relative viability ([10]; first compound 0.8 µM): 0.426; relative viability ([10]; first compound 2.53 µM): 0.452; relative viability ([11]; first compound 0.08 µM): 0.135; relative viability ([11]; first compound 0.8 µM): 0.151; relative viability ([11]; first compound 2.53 µM): 0.128; relative viability ([12]; first compound 0.08 µM): 0.869; relative viability ([12]; first compound 0.253 µM): 0.667; relative viability ([12]; first compound 0.8 µM): 0.865; relative viability ([12]; first compound 2.53 µM): 0.856; relative viability ([13]; first compound 0.08 µM): 0.978; relative viability ([13]; first compound 0.8 µM): 0.896; relative viability ([13]; first compound 2.53 µM): 0.919; relative viability ([14]; first compound 0.08 µM): 0.939; relative viability ([14]; first compound 0.253 µM): 0.873; relative viability ([14]; first compound 0.8 µM): 0.754; relative viability ([14]; first compound 2.53 µM): 0.809; relative viability ([15]; first compound 0.08 µM): 0.568; relative viability ([15]; first compound 0.253 µM): 0.683; relative viability ([15]; first compound 0.8 µM): 0.588; relative viability ([15]; first compound 2.53 µM): 0.503; relative viability ([16]; first compound 0.08 µM): 0.703; relative viability ([16]; first compound 0.253 µM): 0.541; relative viability ([16]; first compound 0.8 µM): 0.774; relative viability ([16]; first compound 2.53 µM): 0.8; relative viability ([17]; first compound 0.08 µM): 1.11; relative viability ([17]; first compound 0.253 µM): 1.03; relative viability ([17]; first compound 0.8 µM): 1.14; relative viability ([17]; first compound 2.53 µM): 1.07; relative viability ([18]; first compound 0.08 µM): 0.948; relative viability ([18]; first compound 0.253 µM): 0.759; relative viability ([18]; first compound 0.8 µM): 0.927; relative viability ([18]; first compound 2.53 µM): 0.692; relative viability ([19]; first compound 0.08 µM): 0.953; relative viability ([19]; first compound 0.253 µM): 0.836; relative viability ([19]; first compound 0.8 µM): 0.922; relative viability ([19]; first compound 2.53 µM): 0.922; relative viability ([20]; first compound 0.08 µM): 0.96; relative viability ([20]; first compound 0.253 µM): 0.905; relative viability ([20]; first compound 0.8 µM): 1.02; relative viability ([20]; first compound 2.53 µM): 1.05; relative viability ([21]; first compound 0.08 µM): 0.996; relative viability ([21]; first compound 0.253 µM): 0.839; relative viability ([21]; first compound 0.8 µM): 0.899; relative viability ([21]; first compound 2.53 µM): 0.799
